Here are results for 1 compound from publication PMC5319852 (Biochemistry, 2016).

Molecules are shown by their SMILES.

The experiment deals with Plasmodium vivax geranylgeranyl diphosphate synthase (PvGGPPS) (Plasmodium vivax, UniProt A5K4U6). In words: X-ray co-crystal structure. The class given is biochemical.

`CCCCCCCCCCOc1cccc(COc2ccc([N+](=O)[O-])cc2C(=O)O)c1` [BPH-1186] yielded an IC50 of 50 µM.

Usually IC50 stands for the midpoint of a concentration-inhibition curve. Lower therefore signals greater potency in that assay.
